According to PubChem BioAssay AID328 (DTP/NCI, 2004):
“And” between values parts separate entries of the source, which are not always exact repeats. Equal entries are not always repeated. Inconclusive results and toxic doses are left out. The calls were made as follows: active = survival T/C of 150% or more; inactive = T/C below 125% in these data.

System: BDF1 mice, P388 leukemia ip, median survival T/C
Assay: NCI In Vivo Anticancer Drug Screen. Data for tumor model P388 Leukemia (intraperitoneal) in B6D2F1 (BDF1) mice
Conditions: endpoint: median survival time, higher = longer survival
Outline: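 Steps: implant the tumour, treat one group with compound and another with vehicle, record survival, then divide treated by control.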

[1] = dose: 100.0 mg/kg/injection, schedule: Q01DX001 (ip), vehicle: saline with Tween-80
[2] = dose: 200.0 mg/kg/injection, schedule: Q01DX001 (ip), vehicle: saline with Tween-80

Measured: T/C

CCN(Cc1ccccc1)c1ccc(/C=C/c2nccc3ccccc23)cc1
inactive: dose: 100.0 mg/kg/injection, schedule: Q04DX002 (ip), vehicle: saline with Tween-80 116 % of control | dose: 200.0 mg/kg/injection, schedule: Q04DX002 (ip), vehicle: saline with Tween-80 116 % of control | dose: 266.0 mg/kg/injection, schedule: Q04DX002 (ip), vehicle: saline with Tween-80 89 % of control | dose: 400.0 mg/kg/injection, schedule: Q04DX002 (ip), vehicle: saline with Tween-80 123 % of control | dose: 600.0 mg/kg/injection, schedule: Q04DX002 (ip), vehicle: saline with Tween-80 117 % of control

CSCS(=O)C[C@H](CO)NC(=O)/C=C/c1c(C)[nH]c(=O)[nH]c1=O (stereo partly specified)
active: dose: 0.6 mg/kg/injection, schedule: Q01DX010 (ip), vehicle: saline 172 % of control | dose: 2.0 mg/kg/injection, schedule: Q04DX003 (ip), vehicle: saline 156 % of control
inactive: dose: 0.15 mg/kg/injection, schedule: Q01DX010 (ip), vehicle: saline 109 % of control | dose: 0.3 mg/kg/injection, schedule: Q01DX010 (ip), vehicle: saline 122 % of control | dose: 0.72 mg/kg/injection, schedule: Q04DX003 (ip), vehicle: saline 105 % of control | dose: 0.78 mg/kg/injection, schedule: Q04DX002 (ip), vehicle: Klucel (hydroxypropylcellulose) (HPC) 100 % of control and 109 % of control | dose: 0.86 mg/kg/injection, schedule: Q04DX003 (ip), vehicle: saline 108 % of control | dose: 1.0 mg/kg/injection, schedule: Q04DX003 (ip), vehicle: saline 121 % of control | dose: 1.2 mg/kg/injection, schedule: Q01DX010 (ip), vehicle: saline 100 % of control | dose: 1.2 mg/kg/injection, schedule: Q04DX003 (ip), vehicle: saline 123 % of control | dose: 1.56 mg/kg/injection, schedule: Q04DX002 (ip), vehicle: Klucel (hydroxypropylcellulose) (HPC) 109 % of control | dose: 2.4 mg/kg/injection, schedule: Q04DX003 (ip), vehicle: saline 97 % of control | dose: 3.33 mg/kg/injection, schedule: Q04DX003 (ip), vehicle: saline 106 % of control | dose: 6.25 mg/kg/injection, schedule: Q04DX002 (ip), vehicle: Klucel (hydroxypropylcellulose) (HPC) 118 % of control | dose: 173.0 micrograms/kg/injection, schedule: Q01DX009 (ip), vehicle: saline 106 % of control | dose: 288.0 micrograms/kg/injection, schedule: Q01DX009 (ip), vehicle: saline 110 % of control | dose: 480.0 micrograms/kg/injection, schedule: Q01DX009 (ip), vehicle: saline 99 % of control

O=C(O)c1onc2ccccc12
inactive: [1] 113 % of control | [2] 90 % of control

COCC(O)CCl (stereo unspecified)
inactive: dose: 50.0 mg/kg/injection, schedule: Q04DX003 (ip), vehicle: saline with Tween-80 100 % of control | dose: 100.0 mg/kg/injection, schedule: Q04DX003 (ip), vehicle: saline with Tween-80 100 % of control and 110 % of control | dose: 200.0 mg/kg/injection, schedule: Q04DX003 (ip), vehicle: saline with Tween-80 100 % of control and 110 % of control

CC(=O)NC1(C(=O)O)CSSC1
inactive: dose: 12.5 mg/kg/injection, schedule: Q01DX005 (ip), vehicle: saline 107 % of control | dose: 25.0 mg/kg/injection, schedule: Q01DX005 (ip), vehicle: saline 106 % of control | dose: 25.0 mg/kg/injection, schedule: Q04DX003 (ip), vehicle: saline 91 % of control | dose: 50.0 mg/kg/injection, schedule: Q01DX005 (ip), vehicle: saline 104 % of control | dose: 50.0 mg/kg/injection, schedule: Q04DX003 (ip), vehicle: saline 97 % of control | dose: 100.0 mg/kg/injection, schedule: Q01DX005 (ip), vehicle: saline 100 % of control | dose: 100.0 mg/kg/injection, schedule: Q04DX003 (ip), vehicle: saline 118 % of control | dose: 200.0 mg/kg/injection, schedule: Q01DX005 (ip), vehicle: saline 104 % of control | dose: 200.0 mg/kg/injection, schedule: Q04DX003 (ip), vehicle: saline 114 % of control | dose: 400.0 mg/kg/injection, schedule: Q01DX005 (ip), vehicle: saline 97 % of control | dose: 400.0 mg/kg/injection, schedule: Q04DX003 (ip), vehicle: saline 123 % of control

NNC(=O)c1ccc(Cl)cc1Nc1cccc(Cl)c1
inactive: dose: 50.0 mg/kg/injection, schedule: Q01DX001 (ip), vehicle: saline with Tween-80 100 % of control | [1] 100 % of control | [2] 104 % of control
